Values joined by “and” are separate entries in the source; they are usually repeats but may differ in a detail not shown here. Equal values may be shown once. Inconclusive results and toxic doses are left out.
System: L1210 leukemia ip in BDF1 mice, survival T/C
Test: NCI In Vivo Anticancer Drug Screen. Data for tumor model L1210 Leukemia (intraperitoneal) in B6D2F1 (BDF1) mice
Details: higher = longer survival
Method in brief: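 Tumor was transplanted into mice, which were then dosed with test compound or vehicle alone. Survival was recorded for each group, and the treated figure was expressed relative to the control figure.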

CC(CN1CC(=O)NC(=O)C1)N1CC(=O)NC(=O)C1 (stereo not drawn) was tested, and the T/C (endpoint: mean survival time, dose: 1.6 mg/kg/injection, schedule: Q03HX016 (oral), vehicle: steriod suspending solution) was 122 % of control, the T/C (endpoint: mean survival time, dose: 1.6 mg/kg/injection, schedule: Q03HX024 (ip), vehicle: steriod suspending solution) was 156 % of control and the T/C (endpoint: mean survival time, dose: 1.6 mg/kg/injection, schedule: Q03HX024 (oral), vehicle: steriod suspending solution) was 124 % of control. For the same molecule, the T/C (endpoint: mean survival time, dose: 6.25 mg/kg/injection, schedule: Q03HX008 (ip), vehicle: steriod suspending solution) was 118 % of control, the T/C (endpoint: mean survival time, dose: 12.5 mg/kg/injection, schedule: Q01DX009 (oral), vehicle: steriod suspending solution) was 156 % of control and the T/C (endpoint: mean survival time, dose: 12.5 mg/kg/injection, schedule: Q01DX009 (sc), vehicle: steriod suspending solution) was 117 % of control. The T/C (endpoint: mean survival time, dose: 12.5 mg/kg/injection, schedule: Q01DX Z (ip), vehicle: steriod suspending solution) was 154 % of control, the T/C (endpoint: mean survival time, dose: 12.5 mg/kg/injection, schedule: Q03HX024 (oral), vehicle: steriod suspending solution) was 101 % of control and the T/C (endpoint: mean survival time, dose: 12.5 mg/kg/injection, schedule: Q04DX003 (ip), vehicle: steriod suspending solution) was 109 % of control. For the same molecule, the T/C (endpoint: mean survival time, dose: 18.0 mg/kg/injection, schedule: Q01DX009 (ip), vehicle: saline) was 151 % of control, the T/C (endpoint: mean survival time, dose: 25.0 mg/kg/injection, schedule: Q03HX008 (ip), vehicle: steriod suspending solution) was 155 % of control and the T/C (endpoint: mean survival time, dose: 25.0 mg/kg/injection, schedule: Q04DX003 (ip), vehicle: Klucel (hydroxypropylcellulose) (HPC)) was 109 % of control. The T/C (endpoint: mean survival time, dose: 25.0 mg/kg/injection, schedule: Q04DX003 (ip), vehicle: steriod suspending solution) was 103 % of control, the T/C (endpoint: mean survival time, dose: 25.0 mg/kg/injection, schedule: Q04DX003 (iv), vehicle: water) was 113 % of control and 122 % of control and the T/C (endpoint: mean survival time, dose: 25.0 mg/kg/injection, schedule: Q04DX003 (oral), vehicle: steriod suspending solution) was 115 % of control. The T/C (endpoint: mean survival time, dose: 27.0 mg/kg/injection, schedule: Q01DX009 (ip), vehicle: saline) was 155 % of control, the T/C (endpoint: mean survival time, dose: 32.0 mg/kg/injection, schedule: Q04DX003 (ip), vehicle: saline with Tween-80) was 104 % of control and the T/C (endpoint: mean survival time, dose: 50.0 mg/kg/injection, schedule: Q01DX001 (ip), vehicle: saline) was 107 % of control. For the same molecule, the T/C (endpoint: mean survival time, dose: 50.0 mg/kg/injection, schedule: Q01DX001 (ip), vehicle: steriod suspending solution) was 107 % of control, the T/C (endpoint: mean survival time, dose: 50.0 mg/kg/injection, schedule: Q01DX009 (oral), vehicle: steriod suspending solution) was 98 % of control and 121 % of control and the T/C (endpoint: mean survival time, dose: 50.0 mg/kg/injection, schedule: Q03HX024 (ip), vehicle: steriod suspending solution) was 104 % of control. For the same molecule, the T/C (endpoint: mean survival time, dose: 50.0 mg/kg/injection, schedule: Q04DX003 (ip), vehicle: steriod suspending solution) was 100 % of control, the T/C (endpoint: mean survival time, dose: 50.0 mg/kg/injection, schedule: Q04DX003 (iv), vehicle: water) was 112 % of control and 115 % of control and 122 % of control and the T/C (endpoint: mean survival time, dose: 50.0 mg/kg/injection, schedule: Q06HX012 (oral), vehicle: steriod suspending solution) was 101 % of control. For the same molecule, the T/C (endpoint: mean survival time, dose: 60.0 mg/kg/injection, schedule: Q01DX009 (ip), vehicle: saline with Tween-80) was 156 % of control, the T/C (endpoint: mean survival time, dose: 64.0 mg/kg/injection, schedule: Q04DX003 (ip), vehicle: saline with Tween-80) was 124 % of control and the T/C (endpoint: mean survival time, dose: 100.0 mg/kg/injection, schedule: Q01DX001 (ip), vehicle: saline) was 113 % of control. The T/C (endpoint: mean survival time, dose: 100.0 mg/kg/injection, schedule: Q01DX001 (oral), vehicle: steriod suspending solution) was 111 % of control, the T/C (endpoint: mean survival time, dose: 100.0 mg/kg/injection, schedule: Q01DX009 (oral), vehicle: steriod suspending solution) was 95 % of control and 103 % of control and the T/C (endpoint: mean survival time, dose: 100.0 mg/kg/injection, schedule: Q01DX Z (ip), vehicle: steriod suspending solution) was 113 % of control. The T/C (endpoint: mean survival time, dose: 100.0 mg/kg/injection, schedule: Q04DX003 (ip), vehicle: steriod suspending solution) was 151 % of control, the T/C (endpoint: mean survival time, dose: 100.0 mg/kg/injection, schedule: Q04DX003 (iv), vehicle: water) was 112 % of control and 115 % of control and 119 % of control and the T/C (endpoint: mean survival time, dose: 100.0 mg/kg/injection, schedule: Q08DX002 (ip), vehicle: steriod suspending solution) was 151 % of control. The T/C (endpoint: mean survival time, dose: 100.0 mg/kg/injection, schedule: Q08DX002 (oral), vehicle: steriod suspending solution) was 122 % of control, the T/C (endpoint: mean survival time, dose: 120.0 mg/kg/injection, schedule: Q01DX009 (ip), vehicle: saline with Tween-80) was 118 % of control and the T/C (endpoint: mean survival time, dose: 128.0 mg/kg/injection, schedule: Q01DX009 (ip), vehicle: saline with Tween-80) was 112 % of control. For the same molecule, the T/C (endpoint: mean survival time, dose: 128.0 mg/kg/injection, schedule: Q04DX003 (oral), vehicle: saline with Tween-80) was 155 % of control, the T/C (endpoint: mean survival time, dose: 200.0 mg/kg/injection, schedule: Q01DX001 (ip), vehicle: saline) was 120 % of control and the T/C (endpoint: mean survival time, dose: 200.0 mg/kg/injection, schedule: Q01DX001 (oral), vehicle: steriod suspending solution) was 107 % of control. For the same molecule, the T/C (endpoint: mean survival time, dose: 200.0 mg/kg/injection, schedule: Q04DX003 (oral), vehicle: steriod suspending solution) was 153 % of control, the T/C (endpoint: mean survival time, dose: 200.0 mg/kg/injection, schedule: Q08DX002 (oral), vehicle: steriod suspending solution) was 120 % of control and the T/C (endpoint: mean survival time, dose: 240.0 mg/kg/injection, schedule: Q01DX009 (ip), vehicle: saline with Tween-80) was 96 % of control. The T/C (endpoint: mean survival time, dose: 400.0 mg/kg/injection, schedule: Q01DX001 (oral), vehicle: steriod suspending solution) was 114 % of control, the T/C (endpoint: mean survival time, dose: 400.0 mg/kg/injection, schedule: Q04DX003 (oral), vehicle: steriod suspending solution) was 155 % of control and the T/C (endpoint: mean survival time, dose: 400.0 mg/kg/injection, schedule: Q08DX002 (ip), vehicle: steriod suspending solution) was 156 % of control. For the same molecule, the T/C (endpoint: mean survival time, dose: 400.0 mg/kg/injection, schedule: Q08DX002 (oral), vehicle: steriod suspending solution) was 119 % of control, the T/C (endpoint: mean survival time, dose: 512.0 mg/kg/injection, schedule: Q04DX003 (ip), vehicle: saline with Tween-80) was 155 % of control and the T/C (endpoint: mean survival time, dose: 800.0 mg/kg/injection, schedule: Q04DX003 (ip), vehicle: Klucel (hydroxypropylcellulose) (HPC)) was 154 % of control. For the same molecule, the T/C (endpoint: mean survival time, dose: 800.0 mg/kg/injection, schedule: Q04DX003 (ip), vehicle: water) was 120 % of control, the T/C (endpoint: mean survival time, dose: 800.0 mg/kg/injection, schedule: Q08DX002 (ip), vehicle: steriod suspending solution) was 111 % of control and the T/C (endpoint: mean survival time, dose: 1024.0 mg/kg/injection, schedule: Q04DX003 (oral), vehicle: saline with Tween-80) was 120 % of control. The T/C (endpoint: mean survival time, dose: 2048.0 mg/kg/injection, schedule: Q04DX003 (oral), vehicle: saline with Tween-80) was 94 % of control, the T/C (endpoint: median survival time, dose: 4.0 mg/kg/injection, schedule: Q03HX024 (ip), vehicle: Klucel (hydroxypropylcellulose) (HPC)) was 153 % of control and the T/C (endpoint: median survival time, dose: 8.0 mg/kg/injection, schedule: Q01DX009 (sc), vehicle: saline with Tween-80) was 120 % of control. The T/C (endpoint: median survival time, dose: 8.0 mg/kg/injection, schedule: Q03HX008 (ip), vehicle: saline with Tween-80) was 156 % of control, the T/C (endpoint: median survival time, dose: 12.5 mg/kg/injection, schedule: Q01DX009 (ip), vehicle: Klucel (hydroxypropylcellulose) (HPC)) was 150 % of control and the T/C (endpoint: median survival time, dose: 12.5 mg/kg/injection, schedule: Q03HX008 (ip), vehicle: Klucel (hydroxypropylcellulose) (HPC)) was 150 % of control. The T/C (endpoint: median survival time, dose: 16.0 mg/kg/injection, schedule: Q03HX008 (ip), vehicle: saline with Tween-80) was 154 % of control, the T/C (endpoint: median survival time, dose: 16.0 mg/kg/injection, schedule: Q03HX024 (ip), vehicle: saline with Tween-80) was 113 % of control and the T/C (endpoint: median survival time, dose: 25.0 mg/kg/injection, schedule: Q01DX009 (ip), vehicle: Klucel (hydroxypropylcellulose) (HPC)) was 150 % of control. The T/C (endpoint: median survival time, dose: 25.0 mg/kg/injection, schedule: Q03HX008 (ip), vehicle: Klucel (hydroxypropylcellulose) (HPC)) was 151 % of control and 155 % of control, the T/C (endpoint: median survival time, dose: 45.0 mg/kg/injection, schedule: Q03HX024 (ip), vehicle: Klucel (hydroxypropylcellulose) (HPC)) was 155 % of control and the T/C (endpoint: median survival time, dose: 50.0 mg/kg/injection, schedule: Q03HX008 (ip), vehicle: Klucel (hydroxypropylcellulose) (HPC)) was 115 % of control. For the same molecule, the T/C (endpoint: median survival time, dose: 64.0 mg/kg/injection, schedule: Q01DX001 (ip), vehicle: saline with Tween-80) was 105 % of control, the T/C (endpoint: median survival time, dose: 64.0 mg/kg/injection, schedule: Q03HX008 (ip), vehicle: saline with Tween-80) was 156 % of control and the T/C (endpoint: median survival time, dose: 64.0 mg/kg/injection, schedule: Q03HX016 (ip), vehicle: saline with Tween-80) was 96 % of control. For the same molecule, the T/C (endpoint: median survival time, dose: 64.0 mg/kg/injection, schedule: Q08DX002 (ip), vehicle: saline with Tween-80) was 109 % of control, the T/C (endpoint: median survival time, dose: 100.0 mg/kg/injection, schedule: Q01DX001 (ip), vehicle: other) was 122 % of control and the T/C (endpoint: median survival time, dose: 100.0 mg/kg/injection, schedule: Q01DX001 (ip), vehicle: steriod suspending solution) was 122 % of control. For the same molecule, the T/C (endpoint: median survival time, dose: 100.0 mg/kg/injection, schedule: Q04DX003 (ip), vehicle: other) was 122 % of control, the T/C (endpoint: median survival time, dose: 108.0 mg/kg/injection, schedule: Q01DX001 (ip), vehicle: Klucel (hydroxypropylcellulose) (HPC)) was 114 % of control and 120 % of control and the T/C (endpoint: median survival time, dose: 128.0 mg/kg/injection, schedule: Q01DX001 (ip), vehicle: saline with Tween-80) was 109 % of control. The T/C (endpoint: median survival time, dose: 128.0 mg/kg/injection, schedule: Q01DX009 (sc), vehicle: saline with Tween-80) was 107 % of control, the T/C (endpoint: median survival time, dose: 128.0 mg/kg/injection, schedule: Q04DX003 (ip), vehicle: saline with Tween-80) was 124 % of control and the T/C (endpoint: median survival time, dose: 128.0 mg/kg/injection, schedule: Q08DX002 (ip), vehicle: saline with Tween-80) was 119 % of control. The T/C (endpoint: median survival time, dose: 168.0 mg/kg/injection, schedule: Q04DX003 (ip), vehicle: Klucel (hydroxypropylcellulose) (HPC)) was 152 % of control and 155 % of control, the T/C (endpoint: median survival time, dose: 180.0 mg/kg/injection, schedule: Q01DX001 (ip), vehicle: Klucel (hydroxypropylcellulose) (HPC)) was 118 % of control and 120 % of control and the T/C (endpoint: median survival time, dose: 200.0 mg/kg/injection, schedule: Q01DX001 (ip), vehicle: steriod suspending solution) was 155 % of control. The T/C (endpoint: median survival time, dose: 256.0 mg/kg/injection, schedule: Q01DX001 (ip), vehicle: saline with Tween-80) was 113 % of control, the T/C (endpoint: median survival time, dose: 400.0 mg/kg/injection, schedule: Q01DX001 (ip), vehicle: steriod suspending solution) was 150 % of control and 155 % of control and the T/C (endpoint: median survival time, dose: 400.0 mg/kg/injection, schedule: Q04DX003 (ip), vehicle: other) was 94 % of control. The T/C (endpoint: median survival time, dose: 512.0 mg/kg/injection, schedule: Q08DX002 (ip), vehicle: saline with Tween-80) was 150 % of control and the T/C (endpoint: median survival time, dose: 700.0 mg/kg/injection, schedule: Q04DX003 (ip), vehicle: Klucel (hydroxypropylcellulose) (HPC)) was 105 % of control and 106 % of control.

From PubChem BioAssay AID248 (DTP/NCI, 2004)
